Measured values as given in ChEMBL document CHEMBL1811901, “Bioactive sulfoximines: syntheses and properties of Vioxx analogs” (Bioorg Med Chem Lett, 2011).

Experiments:
hERG (KCNH2) [1] = target: T1, hERG (KCNH2) (Homo sapiens, UniProt Q12809); assay: Inhibition of human ERG expressed in HEK293 cells assessed as inhibition of tail current at holding potential of -70 mV at 3.16 uM after 10 mins by whole-cell patch clamp method relative to control; format: cell-based; settings: HEK293 cells that express hERG
T1 sequence (Q12809 whole entry): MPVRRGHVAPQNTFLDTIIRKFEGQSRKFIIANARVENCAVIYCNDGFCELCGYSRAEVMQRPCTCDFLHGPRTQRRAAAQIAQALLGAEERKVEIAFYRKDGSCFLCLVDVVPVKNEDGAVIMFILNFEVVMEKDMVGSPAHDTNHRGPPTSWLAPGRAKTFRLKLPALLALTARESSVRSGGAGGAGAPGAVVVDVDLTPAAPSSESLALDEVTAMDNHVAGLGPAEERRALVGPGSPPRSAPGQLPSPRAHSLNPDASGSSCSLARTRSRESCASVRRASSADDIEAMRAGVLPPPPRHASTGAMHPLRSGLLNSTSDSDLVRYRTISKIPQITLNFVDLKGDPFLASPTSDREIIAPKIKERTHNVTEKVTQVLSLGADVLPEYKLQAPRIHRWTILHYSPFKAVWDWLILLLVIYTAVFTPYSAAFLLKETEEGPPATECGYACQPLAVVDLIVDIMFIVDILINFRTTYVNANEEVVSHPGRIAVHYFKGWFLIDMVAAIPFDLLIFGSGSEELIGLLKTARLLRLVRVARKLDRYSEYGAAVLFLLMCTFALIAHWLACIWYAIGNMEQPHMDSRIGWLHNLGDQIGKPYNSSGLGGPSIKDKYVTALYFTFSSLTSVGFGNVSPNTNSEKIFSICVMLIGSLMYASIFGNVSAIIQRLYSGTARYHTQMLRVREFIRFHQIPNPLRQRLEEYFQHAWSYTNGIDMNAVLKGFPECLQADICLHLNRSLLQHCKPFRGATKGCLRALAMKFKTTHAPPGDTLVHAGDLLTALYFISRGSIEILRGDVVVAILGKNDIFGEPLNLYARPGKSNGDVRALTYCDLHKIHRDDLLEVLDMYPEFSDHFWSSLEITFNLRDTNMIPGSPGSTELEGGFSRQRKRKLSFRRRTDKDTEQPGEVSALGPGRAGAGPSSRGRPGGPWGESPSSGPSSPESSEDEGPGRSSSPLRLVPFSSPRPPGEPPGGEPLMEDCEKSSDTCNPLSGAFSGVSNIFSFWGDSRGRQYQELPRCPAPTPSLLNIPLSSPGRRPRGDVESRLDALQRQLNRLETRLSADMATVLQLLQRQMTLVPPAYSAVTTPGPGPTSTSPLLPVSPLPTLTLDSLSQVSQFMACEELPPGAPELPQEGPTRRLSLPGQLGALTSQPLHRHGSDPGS

hERG (KCNH2) [2] = target: T1, hERG (KCNH2); assay: Inhibition of human ERG expressed in HEK293 cells assessed as inhibition of tail current at holding potential of -70 mV at 100 uM after 10 mins by whole-cell patch clamp method; format: cell-based; settings: HEK293 cells that express hERG
hERG (KCNH2) [3] = target: T1, hERG (KCNH2); assay: Inhibition of human ERG expressed in HEK293 cells assessed as inhibition of tail current at holding potential of -70 mV at 10 uM after 10 mins by whole-cell patch clamp method; format: cell-based; settings: HEK293 cells that express hERG
hERG (KCNH2) [4] = target: T1, hERG (KCNH2); assay: Inhibition of human ERG expressed in HEK293 cells assessed as inhibition of tail current at holding potential of -70 mV at 31.6 uM after 10 mins by whole-cell patch clamp method; format: cell-based; settings: HEK293 cells that express hERG
hERG (KCNH2) [5] = target: T1, hERG (KCNH2); assay: Inhibition of human ERG expressed in HEK293 cells assessed as inhibition of tail current at holding potential of -70 mV at 1 uM after 10 mins by whole-cell patch clamp method; format: cell-based; settings: HEK293 cells that express hERG
hERG (KCNH2) [6] = target: T1, hERG (KCNH2); assay: Inhibition of human ERG expressed in HEK293 cells assessed as inhibition of tail current at holding potential of -70 mV at 3.16 uM after 10 mins by whole-cell patch clamp method; format: cell-based; settings: HEK293 cells that express hERG
hERG (KCNH2) [7] = target: T1, hERG (KCNH2); assay: Inhibition of human ERG expressed in HEK293 cells assessed as inhibition of tail current at holding potential of -70 mV at 1 uM after 10 mins by whole-cell patch clamp method relative to control; format: cell-based; settings: HEK293 cells that express hERG
[8] = target: T2, Prostaglandin G/H synthase 1 (Homo sapiens, UniProt P23219); assay: Inhibition of human platelets COX1 assessed as PGE2 production using arachidonic acid as substrate at 10 uM preincubated for 15 mins measured after 15 mins by EIA
T2 sequence (P23219 whole entry): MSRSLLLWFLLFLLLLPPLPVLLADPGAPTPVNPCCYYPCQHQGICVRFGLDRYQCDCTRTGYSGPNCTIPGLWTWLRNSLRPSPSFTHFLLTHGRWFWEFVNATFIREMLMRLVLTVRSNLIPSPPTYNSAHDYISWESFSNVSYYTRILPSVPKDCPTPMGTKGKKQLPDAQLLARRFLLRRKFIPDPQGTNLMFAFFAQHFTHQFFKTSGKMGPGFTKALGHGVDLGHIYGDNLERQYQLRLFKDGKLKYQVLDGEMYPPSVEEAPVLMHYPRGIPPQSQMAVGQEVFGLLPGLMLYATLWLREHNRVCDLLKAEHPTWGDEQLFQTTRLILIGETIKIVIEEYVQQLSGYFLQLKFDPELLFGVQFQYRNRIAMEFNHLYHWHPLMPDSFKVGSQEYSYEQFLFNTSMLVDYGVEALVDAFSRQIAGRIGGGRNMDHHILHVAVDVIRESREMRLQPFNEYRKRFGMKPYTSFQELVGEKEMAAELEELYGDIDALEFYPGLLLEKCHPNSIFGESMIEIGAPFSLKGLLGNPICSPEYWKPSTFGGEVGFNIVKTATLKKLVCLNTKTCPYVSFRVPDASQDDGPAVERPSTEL

[9] = target: T2, Prostaglandin G/H synthase 1; assay: Inhibition of human platelets COX1 assessed as PGE2 production using arachidonic acid as substrate preincubated for 15 mins measured after 15 mins by EIA
[10] = target: T3, Prostaglandin G/H synthase 2 (Homo sapiens, UniProt P35354); assay: Inhibition of human recombinant COX2 expressed in Sf21 cells assessed as PGE2 production using arachidonic acid as substrate preincubated for 15 mins measured after 5 mins by EIA
T3 sequence (P35354 whole entry): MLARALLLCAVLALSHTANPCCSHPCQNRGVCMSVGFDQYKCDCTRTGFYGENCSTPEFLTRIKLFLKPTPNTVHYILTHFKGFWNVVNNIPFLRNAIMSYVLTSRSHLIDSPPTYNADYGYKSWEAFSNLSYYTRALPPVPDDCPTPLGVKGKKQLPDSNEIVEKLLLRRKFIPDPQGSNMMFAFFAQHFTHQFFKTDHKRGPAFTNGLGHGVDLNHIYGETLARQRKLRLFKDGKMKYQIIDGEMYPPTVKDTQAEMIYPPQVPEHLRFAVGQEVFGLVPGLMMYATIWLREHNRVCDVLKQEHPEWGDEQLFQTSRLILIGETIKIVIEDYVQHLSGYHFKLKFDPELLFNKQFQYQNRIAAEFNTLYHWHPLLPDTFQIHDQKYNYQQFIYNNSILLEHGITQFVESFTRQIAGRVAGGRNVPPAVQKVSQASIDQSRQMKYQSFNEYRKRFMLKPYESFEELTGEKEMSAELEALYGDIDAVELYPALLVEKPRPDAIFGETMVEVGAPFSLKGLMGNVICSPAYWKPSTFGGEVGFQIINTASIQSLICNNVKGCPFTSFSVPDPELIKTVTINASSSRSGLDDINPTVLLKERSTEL

SMILES | inhibition at 10 min, 3.16 µM (hERG (KCNH2) [1]) [%] | inhibition at 10 min, 100 µM (hERG (KCNH2) [2]) [%] | inhibition at 10 min, 10 µM (hERG (KCNH2) [3]) [%] | inhibition at 10 min, 31.6 µM (hERG (KCNH2) [4]) [%] | inhibition at 10 min, 1 µM (hERG (KCNH2) [5]) [%] | inhibition at 10 min, 3.16 µM (hERG (KCNH2) [6]) [%] | inhibition at 10 min, 1 µM (hERG (KCNH2) [7]) [%] | inhibition [8] [%] | IC50 [9] [nM] | IC50 [10] [nM]
CS(=O)(=O)c1ccc(C2=C(c3ccccc3)C(=O)OC2)cc1 [ROFECOXIB] | -10.2 | 27.6 | 10.4 | 19.1 | 6.8 | 8.3 | – | – | – | –
C[S+](=N)([O-])c1ccc(C2=C(c3ccccc3)C(=O)OC2)cc1 (stereo unspecified) | – | 29.6 | 20 | 27.6 | 1.7 | 7 | -0.1 | 26 | – | –
CN=[S+](C)([O-])c1ccc(C2=C(c3ccccc3)C(=O)OC2)cc1 (stereo unspecified) | – | – | – | – | – | – | – | 10 | 42.4 | 156
